Where a name gives a salt, the structure may show the parent alone.
These compounds were tested against T1, human norepinephrine transporter (Homo sapiens, UniProt P23975) (assay: Norepinephrine Transporter Binding Assay ([3H]desipramine displacement, MDCK cell membranes)). Conditions: MDCK cell membrane preparation expressing human NET; [3H]desipramine 2 nM; 2 h on ice; triplicate.
T1 construct: purchased Perkin-Elmer; host or cells: MDCK cells (membrane preparation)
Procedure: Unless otherwise stated, all reactions were conducted under an inert atmosphere of dry nitrogen. Indicated temperatures refer to those of the reaction bath, while ambient laboratory temperature is noted as 22° C. Anhydrous dimethylformamide (DMF), dimethylsulfoxide (DMSO), acetonitrile (MCCN), pyridine, triethylamine (TEA), and diisopropylethylamine (DIEA) were obtained from Aldrich in SureSeal® bottles. Absolute ethanol was obtained from Quantum Chemical Corp. Merck silica gel, grade 9385, 230-400 mesh, 60 Å was used for flash chromatography. Ethyl acetate (EtOAc), chloroform (CHCl3), methanol (MeOH), HPLC grade acetonitrile (MeCN), dichloromethane (DCM), ethyl ether, acetone, sodium hydroxide (NaOH), and hydrochloric acid (HCl) were obtained from Baker. 1-Trityl-1H-imidazole-2-amine was prepared according to a published procedure (U.S. Pat. No. 6,130,231, incorporated by reference in its entirety). 1-Bromo-2-fluoroethane was purchased from Alfa Aesar. 3-Methoxy-4-fluorobenzonitrile was purchased from TCI. MDCK cell membranes expressing human norepinephrine transporter, and [^3H]desipramine were purchased from Perkin-Elmer. [^18F]NaF was obtained from PETNET Pharmaceutical Services (Cummings Park, Woburn, MA) on a MP1 anion exchange resin (BioRad) cartridge. Other reagents were obtained from Lancaster Synthesis, Inc., Sigma-Aldrich Chemical Co, or Fluka Chemical Corp.
Inhibitors to be tested were dissolved in incubation buffer (50 mM Tris-HCl, 10% sucrose, pH 7.4) at appropriate dilutions. The inhibitor solutions were added to the wells of a microtiter plate (40 μL/well) in triplicate. Each well of test agent (and appropriate control wells) was treated with a mixture of MDCK cell membrane preparation (22.4 μg of membrane) expressing human norepinephrine transporter (Bmax=3.7 pmol norepinephrine transporter/mg protein), and [^3H]desipramine (2 nM, 64.8 Ci/mmol) in a total volume of 0.2 mL. The resulting mixtures were incubated for 2 h on ice. A 96 well GF/C filter plate was presoaked with coating buffer (0.5% polyvinylpyrrolidine and 0.1% Tween 20) for 2 h at room temperature. The presoaked filter plate was washed with incubation buffer (6×0.2 mL). The NET reactions were transferred to the coated filter plate and filtered. The filter plate was washed (6×0.2 mL) with ice cold wash buffer (50 mM Tris-HCl, 0.9% NaCl, pH 7.4). The plate was dried overnight, incubated briefly with 25 μL scintillant, and read on a Micro Beta plate reader.

T1 sequence (P23975 whole entry): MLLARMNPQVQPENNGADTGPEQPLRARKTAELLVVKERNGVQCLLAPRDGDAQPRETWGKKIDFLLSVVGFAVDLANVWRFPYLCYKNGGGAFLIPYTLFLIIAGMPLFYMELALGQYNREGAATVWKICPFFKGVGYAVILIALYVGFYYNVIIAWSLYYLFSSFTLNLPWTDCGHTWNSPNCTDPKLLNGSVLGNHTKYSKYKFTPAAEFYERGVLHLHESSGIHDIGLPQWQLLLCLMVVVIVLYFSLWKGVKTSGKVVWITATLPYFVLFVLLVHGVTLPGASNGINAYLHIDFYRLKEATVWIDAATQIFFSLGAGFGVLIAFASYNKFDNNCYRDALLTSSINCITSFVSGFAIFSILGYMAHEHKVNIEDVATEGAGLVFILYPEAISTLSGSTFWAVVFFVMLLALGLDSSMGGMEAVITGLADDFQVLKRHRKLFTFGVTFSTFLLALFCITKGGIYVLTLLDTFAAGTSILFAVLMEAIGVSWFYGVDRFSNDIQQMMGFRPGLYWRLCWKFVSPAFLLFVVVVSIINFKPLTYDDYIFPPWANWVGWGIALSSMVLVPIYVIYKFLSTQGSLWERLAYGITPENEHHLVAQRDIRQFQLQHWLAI

| Structure (SMILES) | NET Affinity |
| --- | --- |
| Fc1ccc(CNc2ncc[nH]2)cc1C(F)(F)F [Example 1, N-(4-Fluoro-3-(trifluoromethyl)benzyl)-1H-imidazol-2-amine] | 17.94 µM |
| Cl.N=C(N)NCC(O)c1ccc(OCCF)cc1 (centres unmarked) [Example 2, 1-(2-(4-(2-fluoroethoxy)phenyl)-2-hydroxyethyl)guanidinium Chloride] | <20 µM |
| Cl.N=C(N)NCCc1ccc(OCCF)cc1 [Example 3, 1-(4-(2-Fluoroethoxy)phenethyl)guanidinium Chloride] | 1.45 µM |
| Cl.N=C1NCC(c2ccc(OCCF)cc2)N1 (centres unmarked) [Example 4, 4-(4-(2-Fluoroethoxy)phenyl)imidazolidin-2-iminium Chloride] | 7.27 µM |
| Cl.N=C(N)N/C=C/c1ccc(OCCF)cc1 [Example 5, (E)-1-(4-(2-Fluoroethoxy)styryl)guanidinium Chloride] | 4.10 µM |
| CC(N)C(O)c1cc(O)c(OCCF)c(O)c1.Cl (centres unmarked) [Example 6, 5-(2-Amino-1-hydroxypropyl)-2-(2-fluoroethoxy)benzene-1,3-diol Hydrochloride] | 102.8 µM |
| COc1cc(CNC(=N)N)ccc1F.Cl [Example 7, 3-Methoxy-4-fluorobenzylguanidinium Chloride] | 20.71 µM |
| Cl.N=C(N)NCc1ccc(OCCF)c(Br)c1 [Example 8, 3-Bromo-4-(2-fluoroethoxy)benzylguanidinium Chloride] | 5.65 µM |
| N=C(N)NCc1cccc(OCCF)c1 [Example 9, 3-(2-Fluoroethoxy)benzylguanidinium Trifluoroacetate] | 4.36 µM |
| N=C(N)NCCc1ccc(OCCF)c(Cl)c1 [Example 10, 3-Chloro-4-(2-fluoroethoxy)phenethylguanidinium Trifluoroacetate] | 1.80 µM |
| CNC(C)C(O)c1ccc(F)c(O)c1 (centres unmarked) [Example 11, 1-(4-Fluoro-3-hydroxyphenyl)-1-hydroxy-N-methylpropan-2-aminium Trifluoroacetate] | 54.85 µM |

Reference: patent US12324845B2, “Ligands for imaging cardiac innervation” (Lantheus Medical Imaging, Inc., priority 2006, dated 2025)
